From US20080109040A1, “METHOD OF TREATING ARRHYTHMIAS” (priority 2002, published 2008)
Entries after “also recorded” stand apart in the source; their conditions may differ. Like-named read-outs stand apart in the source and are kept apart here.

Tests used:
[1] = system: guinea pig ventricular myocytes; assay: Action potential duration, EADs and triggered activity in guinea pig ventricular myocytes; details: for Reduction of ATX-II-induced prolongation of APD50: ATX-II 10-20 nmol/L; for Attenuation of ATXII-induced prolongation of APD50: ATXII 10-40 nmol/L
Protocol: Single ventricular myocytes were isolated from the hearts of adult, male guinea pigs (Harlan). In brief, the hearts were perfused with warm (35° C.) and oxygenated solutions in the following order: 1) Tyrode solution containing (in mmol/L) 140 NaCl, 4.6 KCl, 1.8 CaCl2, 1.1 MgSO4, 10 glucose and 5 HEPES, pH 7.4, for 5 minutes; 2) Ca^2+-free solution containing (in mmol/L) 100 NaCl, 30 KCl, 2 MgSO4, 10 glucose, 5 HEPES, 20 taurine, and 5 pyruvate, pH 7.4, for 5 minutes; and 3) Ca^2+-free solution containing sollagenase (120 units/ml) and albumin (2 mg/ml), for 20 minutes. At the end of the perfusion, the ventricles were removed, minced, and gently shaken for 10 minutes in solution #3. Isolated cells were harvested from the cell suspension.
Myocytes were placed into a recording chamber and superfused with Tyrode solution at 35° C. Drugs were applied via the superfusate. Action potentials were measured using glass microelectrodes filled with a solution containing (in mmol/L) 120 K-aspartate, 20 KCl, 1 MgCl2, 4 Na2ATP, 0.1 Na3GTP, 10 glucose, 1 EGTA and 10 HEPES (pH 7.2). Microelectrode resistance was 1-3 MΩ. An Axopatch-200 amplifier, a DigiData-1200A interface and pCLAMP6 software were used to perform electrophysiological measurements. Action potentials were induced by 5-ms depolarizing pulses applied at various frequencies as indicated. The duration of action potential was measured at 50% (APD50) and 90% (APD90) repolarization.
1) Ventricular myocytes were electrically stimulated at a frequency of 0.5, 1 or 2 Hz. Each myocyte was treated with 3, 10 and 30 μmol/L ranolazine. The effect of ranolazine on action potential duration at each pacing frequency was determined from 4 myocytes.
2) Action potentials were elicited at a frequency of 0.25 Hz, and the effect of ranolazine (10 μmol/L) on action potential duration was examined in the presence of 5 μmol/L quinidine. Experiments were performed on 4 myocytes.
Following the procedures and protocols of Example 21, guinea pig ventricular myocytes were electrically stimulated in the presence of ranolazine either alone or in the presence of ATX II [a sea anemone toxin known to mimic LQT3 syndrome by slowing Na^+-channel inactivation from the open state and thereby increasing the peak and late Na^+ current (INa) of cardiomyocytes]. ATXII is known to induce early afterdepolarizations (EADs) and triggered activity and ventricular tachycardia.
Action potentials were recorded using the whole-cell patch-electrode technique. Ventricular monophasic action potentials and electrograms were recorded from isolated hearts.
The ventricular APD of guinea pigs isolated myocytes and hearts was measured, respectively, at 50% (APD50) and 90% (MAPD90) repolarization.

[2] = target: T1, L-type calcium current (ICa) (Canis lupus familiaris, UniProt A0A8I3QY31); assay: L-type calcium current voltage clamp in isolated canine left ventricular myocytes; type: cell-based; details: read-out: Concentration at which ranolazine blocks the calcium channel
T1 construct: Single myocytes were obtained by enzymatic dissociation from a wedge-shaped section of the ventricular free wall; endogenous in cells; host or cells: isolated canine left ventricular myocytes
T1 sequence (A0A8I3QY31 1-2188): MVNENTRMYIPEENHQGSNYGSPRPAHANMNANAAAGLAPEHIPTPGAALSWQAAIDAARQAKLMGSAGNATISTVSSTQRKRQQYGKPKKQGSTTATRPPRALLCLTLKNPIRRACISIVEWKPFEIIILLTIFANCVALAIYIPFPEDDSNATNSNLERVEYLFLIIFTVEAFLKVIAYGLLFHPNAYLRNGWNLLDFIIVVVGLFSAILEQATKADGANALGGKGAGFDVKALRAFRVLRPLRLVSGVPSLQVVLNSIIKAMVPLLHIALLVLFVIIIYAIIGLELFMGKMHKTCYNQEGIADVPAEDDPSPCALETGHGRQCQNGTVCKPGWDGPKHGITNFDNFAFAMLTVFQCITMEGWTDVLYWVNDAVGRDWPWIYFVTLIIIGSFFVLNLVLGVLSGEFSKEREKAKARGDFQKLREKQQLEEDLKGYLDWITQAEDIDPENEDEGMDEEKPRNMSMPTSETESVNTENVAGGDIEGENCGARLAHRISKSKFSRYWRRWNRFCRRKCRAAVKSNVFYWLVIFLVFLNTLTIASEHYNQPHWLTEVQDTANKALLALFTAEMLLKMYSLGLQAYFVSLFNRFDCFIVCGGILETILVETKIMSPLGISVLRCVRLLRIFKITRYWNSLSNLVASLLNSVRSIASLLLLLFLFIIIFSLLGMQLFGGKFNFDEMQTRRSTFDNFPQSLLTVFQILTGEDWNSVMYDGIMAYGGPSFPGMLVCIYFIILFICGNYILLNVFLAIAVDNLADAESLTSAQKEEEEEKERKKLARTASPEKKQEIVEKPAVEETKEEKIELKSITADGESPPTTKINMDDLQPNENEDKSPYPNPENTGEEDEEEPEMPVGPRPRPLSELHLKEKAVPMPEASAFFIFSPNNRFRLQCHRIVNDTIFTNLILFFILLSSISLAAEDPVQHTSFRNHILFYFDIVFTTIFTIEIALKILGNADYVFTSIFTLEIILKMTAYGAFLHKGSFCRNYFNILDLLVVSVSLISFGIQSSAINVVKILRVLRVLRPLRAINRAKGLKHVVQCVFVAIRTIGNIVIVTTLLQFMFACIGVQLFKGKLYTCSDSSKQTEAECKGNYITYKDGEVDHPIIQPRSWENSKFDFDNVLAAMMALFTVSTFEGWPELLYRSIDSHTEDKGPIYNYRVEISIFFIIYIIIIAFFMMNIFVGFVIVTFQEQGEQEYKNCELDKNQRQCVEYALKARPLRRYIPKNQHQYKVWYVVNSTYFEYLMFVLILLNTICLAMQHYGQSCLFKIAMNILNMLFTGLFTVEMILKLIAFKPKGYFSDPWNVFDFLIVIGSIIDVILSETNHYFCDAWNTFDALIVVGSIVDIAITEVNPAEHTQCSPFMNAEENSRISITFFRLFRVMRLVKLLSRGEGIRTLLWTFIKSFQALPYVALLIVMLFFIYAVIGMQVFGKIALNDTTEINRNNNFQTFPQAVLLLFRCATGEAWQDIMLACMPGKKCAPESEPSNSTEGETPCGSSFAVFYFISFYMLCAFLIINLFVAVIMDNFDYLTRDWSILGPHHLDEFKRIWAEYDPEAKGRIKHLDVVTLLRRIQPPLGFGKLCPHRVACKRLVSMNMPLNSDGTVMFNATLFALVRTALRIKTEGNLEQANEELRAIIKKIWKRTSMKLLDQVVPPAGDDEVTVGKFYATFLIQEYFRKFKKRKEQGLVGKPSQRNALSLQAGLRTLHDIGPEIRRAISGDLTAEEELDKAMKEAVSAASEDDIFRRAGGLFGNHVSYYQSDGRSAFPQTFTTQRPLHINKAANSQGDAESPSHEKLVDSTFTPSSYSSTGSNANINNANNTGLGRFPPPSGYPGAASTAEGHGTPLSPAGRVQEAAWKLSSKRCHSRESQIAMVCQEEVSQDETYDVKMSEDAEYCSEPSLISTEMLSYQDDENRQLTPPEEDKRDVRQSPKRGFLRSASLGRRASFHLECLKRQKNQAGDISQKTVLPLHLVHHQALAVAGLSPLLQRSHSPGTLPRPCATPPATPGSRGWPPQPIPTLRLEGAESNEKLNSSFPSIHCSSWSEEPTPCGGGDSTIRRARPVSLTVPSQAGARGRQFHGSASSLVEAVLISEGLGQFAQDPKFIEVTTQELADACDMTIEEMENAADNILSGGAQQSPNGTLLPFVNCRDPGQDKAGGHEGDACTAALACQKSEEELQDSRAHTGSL

[3] = target: T2, sodium-calcium exchange current (INa-Ca) (Canis lupus familiaris, UniProt P23685); assay: Sodium-calcium exchange current voltage clamp in isolated canine left ventricular myocytes; type: cell-based; details: read-out: IC50 for inhibition of INa-Ca
T2 construct: Single myocytes were obtained by enzymatic dissociation from a wedge-shaped section of the ventricular free wall; endogenous in cells; host or cells: isolated canine left ventricular myocytes

[4] = system: guinea pig isolated heart; assay: K-H buffer perfused guinea pig isolated heart: MAP duration, EADs and VT; details: for Effect on ATXII-induced EADs and MAP prolongation: ranolazine 10 μM; for Decrease of MAPS90: ranolazine 10 μmol/L; for Effect on ATXII-induced EADs and VT: ranolazine 5, 10 and 30 μM in the presence of ATXII
Excerpt: To study the effect of ranolazine on ATXII induced MAP (monophasic action potential) duration prolongation, EADs and ventricular tachyarrhythmia (VT), the K—H buffer perfused guinea pig isolated heart model was used.
Multiple EADs and sustained depolarizations were frequently observed.

[5] = Solubility of ranolazine in aqueous solutions as a function of pH; type: physicochemical
Protocol: In the following examples solutions of ranolazine in water or solutions with a pH above 6 are made up of ranolazine dihydrochloride. In the discussion portions of the following examples, concentrations of ranolazine found as a result of experiments are calculated as ranolazine free base.

M cell preparations = system: M cell preparations; design: species or system canine; details: for Amplitude / Overshoot / RMP: BCL = 500 msec; for Reduction of Vmax: preparation type not stated
Protocol: The composition of the Tyrode's solution was (in mM): […] Action potential recordings: Transmembrane potentials were recorded using standard glass microelectrodes filled with 2.7 M KCl (10 to 20 MΩ DC resistance) connected to a high input-impedance amplification system (World Precision Instruments, Sarasota, Fla., USA). […] Data recorded at BCLs of 500 and 2000 msec are presented.

[6] = ranolazine 10 μmol/L, ATX-II plus either E-4031 or 293B
[7] = M cell, low [K+]o, BCL = 2000 msec

**Q.** Which results are given for `COc1ccccc1OCC(O)CN1CCN(CC(=O)Nc2c(C)cccc2C)CC1` (racemic) [ranolazine, N-(2,6-dimethylphenyl)-4-[2-hydroxy-3-(2-methoxyphenoxy)propyl]-1-piperazineacetamide]?
**A.** Reduction of ATX-II-induced prolongation of APD50 ([1]; ranolazine 0.1 μmol/L): 29±1%; Reduction of ATX-II-induced prolongation of APD50 ([1]; ranolazine 0.3 μmol/L): 47±1%; Reduction of ATX-II-induced prolongation of APD50 ([1]; ranolazine 1 μmol/L): 63±3%; Attenuation of ATXII-induced prolongation of APD50 ([1]; ranolazine 1 μmol/L): 60±4%; Reduction of ATX-II-induced prolongation of APD50 ([1]; ranolazine 3 μmol/L): 79±1%; Attenuation of ATXII-induced prolongation of APD50 ([1]; ranolazine 3 μmol/L): 80±2%; Reduction of ATX-II-induced prolongation of APD50 ([1]; ranolazine 10 μmol/L): 86±2%; Effect on EADs [1, 6]: completely abolished the EADs; Reversal of the prolongation of APD50 [1, 6]: about 70%; Attenuation of ATXII-induced prolongation of APD50 ([1]; ranolazine 10 μmol/L): 86±2%; Suppression of quinidine-induced EADs and triggered activity ([1]; ranolazine 10 μmol/L, quinidine 2.5 μmol/L): effective in suppressing EADs; also recorded: effective in suppressing triggered activity; also recorded: suppressed EADs and TA; Effect on quinidine-induced action potential prolongation ([1]; ranolazine 10 μmol/L, quinidine 5 μmol/L, 0.25 Hz): attenuated the effect of quinidine; Reduction of ATX-II-induced prolongation of APD50 ([1]; ranolazine 30 μmol/L): 99±1%; Attenuation of ATXII-induced prolongation of APD50 ([1]; ranolazine 30 μmol/L): 99±1%; Effect on APD50 and APD90 ([1]; ranolazine 3, 10, 30 μmol/L, 0.5, 1, 2 Hz): moderate and concentration-dependent shortening; IC50 [2]: 296 µM; IC50 [3]: 91 µM; Effect on ATXII-induced EADs and MAP prolongation ([4]; ATXII 20 nM): reversed; Effect on ATXII-induced EADs and MAP prolongation ([4]; ATXII 20 nM, listed as Ranolazine): reduced or effectively abolished; Decrease of MAPS90 ([4]; ATX-II plus 293B): 8.3±0.1%; Decrease of MAPS90 ([4]; ATX-II plus E-4031): 24.5±0.1%; Effect on ATXII-induced VT ([4]; ranolazine 30 μM, ATXII 20 nM): reduced or effectively abolished; Effect on ATXII-induced EADs and VT [4]: VTs were terminated; Effect on ATXII-induced EADs and VT ([4]; listed as Ranolazine): significantly suppressed EADs and VT; USP Solubility Class ([5]; solution pH 4.81): Freely Soluble; USP Solubility Class ([5]; solution pH 4.89): Soluble; USP Solubility Class ([5]; solution pH 4.90): Soluble; USP Solubility Class ([5]; solution pH 5.04): Soluble; USP Solubility Class ([5]; solution pH 5.35): Sparingly Soluble; USP Solubility Class ([5]; solution pH 5.82): Slightly soluble; USP Solubility Class ([5]; solution pH 6.46): Slightly soluble; USP Solubility Class ([5]; solution pH 6.73): Very slightly soluble; USP Solubility Class ([5]; solution pH 7.08): Very slightly soluble; USP Solubility Class ([5]; solution pH 7.59 (unbuffered water)): Very slightly soluble; USP Solubility Class ([5]; solution pH 7.79): Very slightly soluble; USP Solubility Class ([5]; solution pH 12.66): Very slightly soluble; Effect on APD (M cell preparations; M cell preparations, BCL 500 msec): abbreviation; Effect on APD50 and APD90 (M cell preparations; M cell, [K+]o = 4 mM, BCL = 2000 msec): concentration-dependent abbreviation; Effect on repolarization (M cell preparations; M cell, low [K+]o, BCL 500 msec): little change; Effect on APD50 (M cell preparations; [7]): concentration-dependent abbreviation; Effect on APD90 (M cell preparations; [7]): no significant change; Amplitude (M cell preparations; M cell, ranolazine 1.0 μM): 109 ± 9; Overshoot (M cell preparations; M cell, ranolazine 1.0 μM): 23 ± 10; RMP (M cell preparations; M cell, ranolazine 1.0 μM): −86 ± 3; Amplitude (M cell preparations; M cell, ranolazine 5.0 μM): 114 ± 8; Overshoot (M cell preparations; M cell, ranolazine 5.0 μM): 27 ± 7; RMP (M cell preparations; M cell, ranolazine 5.0 μM): −86 ± 3; Amplitude (M cell preparations; M cell, ranolazine 10.0 μM): 113 ± 9; Overshoot (M cell preparations; M cell, ranolazine 10.0 μM): 25 ± 8; RMP (M cell preparations; M cell, ranolazine 10.0 μM): −86 ± 2; Amplitude (M cell preparations; M cell, ranolazine 50.0 μM): 104 ± 7; Overshoot (M cell preparations; M cell, ranolazine 50.0 μM): 19 ± 3; RMP (M cell preparations; M cell, ranolazine 50.0 μM): −86 ± 5; Amplitude (M cell preparations; M cell, ranolazine 100.0 μM): 91 ± 19; Overshoot (M cell preparations; M cell, ranolazine 100.0 μM): 9 ± 13; RMP (M cell preparations; M cell, ranolazine 100.0 μM): −86 ± 7; Reduction of Vmax (M cell preparations; ranolazine 10 μM, BCL 500 msec): modest (n.s.); Reduction of Vmax (M cell preparations; ranolazine 100 μM, BCL 500 msec): more substantial; Preparations in which d-sotalol-induced EAD activity was suppressed and APD abbreviated (M cell preparations; ranolazine 5-20 μM, 100 μM d-sotalol, M cell preparations): 4/4
